Columns and labels:
Test in all cases: selective drug sensitivity score (sDSS, relative to normal bone marrow) (sDSS (score)); higher = more potent and effective on the cell line relative to normal bone marrow cells
Settings in all cases: 72 h
[1] = system: SEM cells
[2] = system: 380
[3] = system: COG-LL-355h
[4] = system: MHH-CALL-2
[5] = system: HAL-01
[6] = system: ALL-PO
[7] = system: RPMI-8402
[8] = system: TMD5
[9] = system: PEER
[10] = system: COG-LL-394h
[11] = system: ALL-SIL
[12] = system: MN-60
[13] = system: KARPAS-45
[14] = system: SUP-B15
[15] = system: P30-OHKUBO
[16] = system: KOPN-8
[17] = system: COG-LL-317
[18] = system: MHH-CALL-4
[19] = system: KASUMI-2
[20] = system: NALM-6
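Note: ALL cell lines in 384-well plates, five doses spanning 10,000-fold, each plate scaled between vehicle and 100 µmol/L benzalkonium chloride controls, sDSS an adapted area-under-curve metric.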

Row | Structure (SMILES) | selective drug sensitivity score [1] | selective drug sensitivity score [2] | selective drug sensitivity score [3] | selective drug sensitivity score [4] | selective drug sensitivity score [5] | selective drug sensitivity score [6] | selective drug sensitivity score [7] | selective drug sensitivity score [8] | selective drug sensitivity score [9] | selective drug sensitivity score [10] | selective drug sensitivity score [11] | selective drug sensitivity score [12] | selective drug sensitivity score [13] | selective drug sensitivity score [14] | selective drug sensitivity score [15] | selective drug sensitivity score [16] | selective drug sensitivity score [17] | selective drug sensitivity score [18] | selective drug sensitivity score [19] | selective drug sensitivity score [20]
1 | CCOC(=O)CCNc1cc(N2CCc3ccccc3CC2)nc(-c2ccccn2)n1 [GSK-J4] (top concentration 100000 nM) | -8.58 | -9.38 | -4.78 | -7.18 | 7.72 | -7.18 | -8.18 | -9.38 | -5.48 | -9.68 | -4.58 | -6.58 | -7.28 | -8.48 | -8.18 | -8.88 | -2.78 | -8.98 | -10.8 | -9.98
2 | Cc1cc(Nc2cc(CN3CCOCC3)c3nc(C)c(Cc4ccc(Cl)cc4F)n3n2)n[nH]1 [Gandotinib] (top concentration 10000 nM) | 10.5 | -8.02 | 2.18 | 7.48 | 4.68 | 4.98 | 0.78 | -0.82 | 8.68 | 0.88 | 9.08 | -3.22 | 9.48 | 7.78 | 6.28 | 8.28 | 8.68 | 4.78 | 7.18 | 4.58
3 | NC(=O)NO [Hydroxyurea] (top concentration 1000000 nM) | 5.36 | -1.04 | 0.66 | 4.56 | 5.26 | -4.54 | 3.46 | -3.24 | 5.56 | -1.74 | 3.56 | -0.04 | 2.86 | 9.96 | 7.66 | 11.9 | 15.4 | -1.04 | -2.14 | 2.56
4 | Cc1ccc(NC(=O)c2ccc(CN3CCN(C)CC3)cc2)cc1Nc1nccc(-c2cccnc2)n1 [Imatinib] (top concentration 10000 nM) | 0.06 | -0.44 | -0.44 | 0.16 | -0.44 | 1.86 | 1.46 | 8.96 | 12 | 3.06 | 24.9 | -0.44 | 1.96 | 17.4 | 0.06 | -0.04 | 1.36 | -0.44 | -0.44 | -0.44
5 | CC(C)NC[C@@H](C(=O)N1CCN(c2ncnc3c2[C@H](C)C[C@H]3O)CC1)c1ccc(Cl)cc1 [Ipatasertib] (top concentration 10000 nM) | 3.3 | 7 | 5.8 | 4.7 | 1.8 | 6.7 | 4.8 | -1.8 | -1.6 | -0.3 | 2.9 | -1.8 | 5.2 | 0.8 | 1.9 | 4.3 | 11 | 4.5 | 7.9 | 6.2
6 | CCC(C)n1ncn(-c2ccc(N3CCN(c4ccc(OCC5COC(Cn6cncn6)(c6ccc(Cl)cc6Cl)O5)cc4)CC3)cc2)c1=O (stereo not given) [Itraconazole] (top concentration 5000 nM) | -2.32 | -1.72 | -4.22 | 5.48 | 2.28 | 1.88 | 0.98 | -2.32 | 0.88 | 1.88 | 2.88 | -2.42 | 6.18 | 1.18 | -2.62 | 13.1 | -2.12 | -0.12 | -3.22 | -1.02
7 | Cc1sc2c(c1C)C(c1ccc(Cl)cc1)=N[C@@H](CC(=O)OC(C)(C)C)c1nnc(C)n1-2 [JQ1] (top concentration 10000 nM) | 11.4 | -0.88 | 3.72 | 9.62 | 6.12 | 4.62 | 3.12 | -3.08 | -1.88 | -2.88 | -1.08 | 6.62 | 9.32 | 3.02 | 8.72 | 11.7 | 6.62 | 8.52 | -5.08 | 4.32
8 | CCNC(=O)c1noc(-c2cc(C(C)C)c(O)cc2O)c1-c1ccc(CN2CCOCC2)cc1 [Luminespib] (top concentration 1000 nM) | 2.1 | 6.3 | 6.5 | -3.9 | -3.7 | 4.6 | -3.8 | -6.3 | -3.7 | -5.2 | -0.1 | -4.6 | -2.7 | -1 | -3.9 | 6.7 | 7.4 | 1.7 | 6.5 | -0.5
9 | O=C(c1cccc(Cl)c1F)N1CCN(Cc2cccc(Nc3nccs3)n2)CC1 [MK-8745] (top concentration 10000 nM) | 18.3 | 18.3 | 2.7 | 12.2 | 7 | 9.9 | 9.4 | 9.4 | 9.8 | 5 | 11.8 | 1.6 | 23.8 | 18.3 | 9.1 | 13.2 | 12.9 | 4.5 | 6.8 | 9.6
10 | Cc1ccc(NC(=O)c2ccc(CN3CCN(C)CC3)cc2)cc1Nc1nc(-c2cccnc2)cs1 [Masitinib] (top concentration 10000 nM) | 0.22 | -4.38 | -1.78 | -1.68 | 0.72 | -1.28 | 1.82 | 1.82 | 6.62 | 3.32 | 11.6 | -1.58 | 3.22 | 7.52 | 1.22 | -1.58 | 3.32 | -4.38 | -4.38 | 0.32
11 | CCN(CC)CCCC(C)Nc1c2ccc(Cl)cc2nc2ccc(OC)cc12 (stereo not given) [Mepacrine] (top concentration 50000 nM) | -0.1 | -1.7 | -3.3 | -5.6 | -3.5 | 0.2 | -7.1 | -7.6 | -5.9 | -5.7 | -7.3 | -5.7 | -0.8 | -1.1 | -0.3 | 0.1 | -0.5 | -8.4 | -9.5 | -5.5
12 | COc1ccc(-c2ccc3ncc4c(c3c2)n(-c2ccc(N3CCNCC3)c(C(F)(F)F)c2)c(=O)n4C)cn1 [NVP-BGT226] (top concentration 1000 nM) | 6.82 | 12.2 | 6.42 | 3.92 | 2.22 | 6.72 | 4.42 | -5.58 | 3.42 | -0.48 | 2.82 | 5.72 | 3.42 | 10.2 | 12.2 | 9.52 | 0.72 | 2.32 | 7.92 | 4.32
13 | COc1nc(N)nc2c1ncn2[C@@H]1O[C@H](CO)[C@@H](O)[C@@H]1O [Nelarabine] (top concentration 10000 nM) | -10.2 | -6.32 | -6.22 | -4.22 | -5.82 | 0.08 | 2.68 | -10.2 | -5.52 | -9.72 | -2.82 | -10.2 | -9.92 | 5.78 | -1.82 | -7.82 | 4.58 | -3.12 | -10.2 | -4.82
14 | Cc1cn(-c2cc(NC(=O)c3ccc(C)c(Nc4nccc(-c5cccnc5)n4)c3)cc(C(F)(F)F)c2)cn1 [Nilotinib] (top concentration 10000 nM) | 4.9 | 6.1 | 0.6 | 8.9 | 3.3 | 4.6 | 1.8 | 21 | 18.1 | 0.7 | 43.3 | 0 | 4.2 | 31.6 | 2.5 | 9.7 | 0 | 2 | 4.1 | 0
15 | NC(=O)c1cccc2cn(-c3ccc(C4CCCNC4)cc3)nc12 (stereo not given) [Niraparib] (top concentration 10000 nM) | 2.98 | 15.8 | 4.68 | 3.78 | 3.18 | 6.08 | 1.98 | -1.72 | -1.02 | -2.02 | 2.88 | -3.02 | -0.62 | 17.2 | 5.98 | 16.1 | 7.88 | 4.58 | 4.28 | 1.18
16 | COc1ccc(C[C@H](NC(=O)[C@H](C)NC(=O)CN2CCOCC2)C(=O)N[C@@H](Cc2ccccc2)C(=O)[C@@]2(C)CO2)cc1 [ONX-0914] (top concentration 10000 nM) | 7.2 | 5.5 | 8.7 | 0.5 | -9.3 | -3.9 | -3.1 | 0 | 7.7 | 6.2 | 3.8 | -2.9 | 1.8 | 11.5 | -1.8 | 1.5 | 4.7 | 2.9 | 0.6 | -1.7
17 | CC(=O)c1cnc2ccc(-c3cc(Cl)c(O)c(Cl)c3)nc2c1N[C@H]1CC[C@H](CN(C)C)CC1 [OTS167] (top concentration 1000 nM) | 0.58 | 9.38 | 6.18 | 3.18 | 1.88 | -2.12 | 0.28 | -7.22 | 1.78 | 4.08 | 2.08 | -1.82 | 0.58 | 2.98 | 0.98 | 5.68 | 3.58 | 2.58 | 4.58 | -1.52
18 | COC(=O)C[C@](O)(CCCC(C)(C)O)C(=O)O[C@@H]1C(OC)=C[C@]23CCCN2CCc2cc4c(cc2[C@H]13)OCO4 [Omacetaxine] (top concentration 10000 nM) | 4.22 | 14.1 | 4.62 | 3.82 | 1.32 | -3.38 | 3.92 | -2.08 | -1.88 | 13 | -1.88 | -3.88 | 3.72 | 7.82 | 3.12 | 5.02 | 7.12 | 3.52 | 10.8 | 4.52

From the supplement of paper PMC8967900
